We go through 25 compounds from patent US11401256B2, “Dihydroquinolinones for medical treatment” (C4 Therapeutics, Inc., priority 2017, dated 2022).

For this experiment, the target named is h-Cereblon_DDB1 (hCereblon(M1-L442)_hDDB1(M1-H1140)) (Homo sapiens (Human), UniProt Q96SW2). Put plainly: Fluorescence direct binding (tryptophan fluorescence titration). The conditions noted are these: 20° C., excitation 280 nm, emission 340 nm, 1:1 protein-ligand complex; read-out: Fluorescence h-Cereblon_DDB1 Mean Kd_EQ.
Sequence of h-Cereblon_DDB1 (hCereblon(M1-L442)_hDDB1(M1-H1140)) (Q96SW2 whole entry): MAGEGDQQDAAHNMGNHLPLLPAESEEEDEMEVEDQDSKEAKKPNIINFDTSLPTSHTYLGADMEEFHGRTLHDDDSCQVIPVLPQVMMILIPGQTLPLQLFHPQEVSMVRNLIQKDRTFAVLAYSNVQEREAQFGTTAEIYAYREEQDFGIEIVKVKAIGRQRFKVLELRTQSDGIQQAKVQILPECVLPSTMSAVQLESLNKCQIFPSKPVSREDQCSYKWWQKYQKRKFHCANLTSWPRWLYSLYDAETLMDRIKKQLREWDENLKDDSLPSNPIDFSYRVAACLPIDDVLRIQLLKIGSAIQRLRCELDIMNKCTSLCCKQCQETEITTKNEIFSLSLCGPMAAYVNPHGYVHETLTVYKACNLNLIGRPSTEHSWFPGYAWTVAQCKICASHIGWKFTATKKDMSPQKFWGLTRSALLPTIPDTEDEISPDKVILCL
Sequence of h-Cereblon_DDB1 (hCereblon(M1-L442)_hDDB1(M1-H1140)) (Q16531 whole entry partner): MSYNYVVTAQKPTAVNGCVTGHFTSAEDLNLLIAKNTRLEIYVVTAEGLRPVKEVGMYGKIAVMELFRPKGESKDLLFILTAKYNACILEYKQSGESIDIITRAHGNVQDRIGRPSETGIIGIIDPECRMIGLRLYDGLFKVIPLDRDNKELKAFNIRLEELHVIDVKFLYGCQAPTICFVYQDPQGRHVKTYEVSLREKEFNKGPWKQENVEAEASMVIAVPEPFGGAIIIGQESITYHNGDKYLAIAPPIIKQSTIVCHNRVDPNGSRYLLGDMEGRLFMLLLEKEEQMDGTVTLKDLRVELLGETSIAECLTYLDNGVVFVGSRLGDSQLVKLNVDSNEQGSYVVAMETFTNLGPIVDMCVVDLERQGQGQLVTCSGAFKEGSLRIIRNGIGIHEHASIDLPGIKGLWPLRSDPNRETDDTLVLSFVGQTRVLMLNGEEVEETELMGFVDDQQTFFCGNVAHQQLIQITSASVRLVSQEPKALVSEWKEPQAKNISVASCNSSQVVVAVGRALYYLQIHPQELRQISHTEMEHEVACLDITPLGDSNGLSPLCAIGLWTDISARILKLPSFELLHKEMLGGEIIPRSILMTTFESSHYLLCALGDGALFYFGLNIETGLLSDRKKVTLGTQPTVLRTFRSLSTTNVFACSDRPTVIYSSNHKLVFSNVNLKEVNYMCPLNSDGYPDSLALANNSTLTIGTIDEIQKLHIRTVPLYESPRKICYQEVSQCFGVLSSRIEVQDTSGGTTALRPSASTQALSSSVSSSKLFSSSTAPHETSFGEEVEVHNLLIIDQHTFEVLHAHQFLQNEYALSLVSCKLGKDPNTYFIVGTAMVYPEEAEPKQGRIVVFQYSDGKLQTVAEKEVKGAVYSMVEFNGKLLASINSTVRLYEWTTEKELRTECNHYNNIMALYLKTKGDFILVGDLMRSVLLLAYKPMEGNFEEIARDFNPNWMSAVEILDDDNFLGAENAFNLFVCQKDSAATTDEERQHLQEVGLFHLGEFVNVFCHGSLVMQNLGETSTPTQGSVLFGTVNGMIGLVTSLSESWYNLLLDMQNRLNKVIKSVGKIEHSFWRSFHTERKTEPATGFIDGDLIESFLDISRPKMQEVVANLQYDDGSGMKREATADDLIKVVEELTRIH
Experimental: Determination of the affinities of compounds to protein containing one or more tryptophan is measurable by monitoring the fluorescence emission in direct mode. The measurements depending on the protein available amounts are performed either manually in a cuvette on ISS-PC1 photon counting spectrofluorometer or automatically in well plates on a fluorescence plate reader device. Fluorescence titrations are performed at 20° C. in the chosen binding assay buffer by using a defined constant protein concentration against ligand concentration variations. Small aliquots of known ligand concentration solubilized in DMSO were added and the fluorescence, excited at 280 nm, was recorded at 340 nm. The fluorescence intensity was corrected for protein dilution and for the filter effect (Birdsall et al.^37). The corrected fluorescence intensity was plotted against the ligand concentration and fitted using a four-parameter sigmoidal function, from which the equilibrium dissociation constant Kd was computed using the law of mass action assuming a 1:1 protein-ligand complex (Eftink, 1997^38).
Process • 1) Optimization of measurement parameters to minimize protein consumption and to minimize the dilution effect and the DMSO content • 2) Titration measurements of the protein against ligand by at least 12 titration steps to obtain a good s-curve fit • 3) Repeat the same titration measurements with the ligand alone to enable correction • 4) Check the stability of the protein once by titration against DMSO alone • 5) Determination of the molar extinction coefficients of the ligand at 280 and 340 nm with help of a UV-spectrophotometer • 6) Use Excel template for the correction of the measured raw data • 7) Use GraphPad Prism software for the quadratic binding fit and the Kd evaluation.
With `O=C1CCc2cc(NC(=O)C3CCCc4ccccc43)cnc2N1` (racemic) [Example 21, (RS)—N-(7-Oxo-5,6,7,8-tetrahydro-1,8-naphthyridin-3-yl)-1,2,3,4-tetrahydronaphthalene-1-carboxamide], the Kd was determined as 4 nM.

For `CNC(=O)c1ccc2c(c1)nc(-c1cc(-c3cncn3C)nc3ccccc13)n2-c1ccc2c(c1)CCC(=O)N2` [Example 2, N-Methyl-2-[2-(3-methylimidazol-4-yl)-4-quinolyl]-1-(2-oxo-3,4-dihydro-1H-quinolin-6-yl)benzimidazole-5-carboxamide], the Kd was 40 nM.

As for `Cn1cncc1-c1cc(C(=O)Nc2ccc3c(c2)CCC(=O)N3)c2ccccc2n1` [Example 5], the Kd turned out to be 677 nM.

Regarding `O=C1CCc2cc(-n3ccnc3)cnc2N1` [Example 9, 6-(1H-Imidazol-1-yl)-3,4-dihydro-1,8-naphthyridin-2(1H)-one], the Kd turned out to be 16 nM.

As for `CNC(=O)c1ccc2c(c1)nc(CO)n2-c1ccc2c(c1)CCC(=O)N2` [Example 15, 2-(Hydroxymethyl)-N-methyl-1-(2-oxo-1,2,3,4-tetrahydroquinolin-6-yl)-1H-benzo[d]imidazole-5-carboxamide], the Kd came to 11 nM.

Consider `COC(=O)c1ccc(Nc2ccc3c(c2)CCC(=O)N3)cc1` [Example 19, Methyl 4-((2-oxo-1,2,3,4-tetrahydroquinolin-6-yl)amino)benzoate], for which the Kd turned out to be 30 nM.

As for `COC(=O)c1ccc2c(c1)nc(-c1ccnc(OC)c1)n2-c1ccc2c(c1)CCC(=O)N2` [Example 22, Methyl 2-(2-methoxypyridin-4-yl)-1-(2-oxo-1,2,3,4-tetrahydroquinolin-6-yl)-1H-benzo[d]imidazole-5-carboxylate], the Kd was 4 nM.

As to `CNC(=O)c1ccc2c(c1)nc(-c1cccc(OC)n1)n2-c1ccc2c(c1)CCC(=O)N2` [Example 23, 2-(6-Methoxypyridin-2-yl)-N-methyl-1-(2-oxo-1,2,3,4-tetrahydroquinolin-6-yl)-1H-benzo[d]imidazole-5-carboxamide], the Kd was found to be 15 nM.

For `CNC(=O)c1ccc2c(c1)nc(-c1ccc(OC)nc1)n2-c1ccc2c(c1)CCC(=O)N2` [Example 24, 2-(6-Methoxypyridin-3-yl)-N-methyl-1-(2-oxo-1,2,3,4-tetrahydroquinolin-6-yl)-1H-benzo[d]imidazole-5-carboxamide], the Kd came to 12 nM.

For `CNC(=O)c1ccc2c(c1)nc(-c1ccnc(OC)c1)n2-c1cnc2c(c1)CCC(=O)N2` [Example 29, 2-(2-Methoxy-4-pyridyl)-N-methyl-1-(7-oxo-6,8-dihydro-5H-1,8-naphthyridin-3-yl)benzimidazole-5-carboxamide], the Kd worked out at 35 nM.

`CNC(=O)c1ccc2c(c1)nc(-c1cc(OC)ccc1C)n2-c1ccc2c(c1)CCC(=O)N2` [Example 33, 2-(5-Methoxy-2-methyl-phenyl)-N-methyl-1-(2-oxo-3,4-dihydro-1H-quinolin-6-yl)benzimidazole-5-carboxamide]: the Kd came out at 45 nM.

Consider `CNC(=O)c1ccc2c(c1)nc(-c1cc(OC)ccc1F)n2-c1ccc2c(c1)CCC(=O)N2` [Example 35, 2-(2-Fluoro-5-methoxy-phenyl)-N-methyl-1-(2-oxo-3,4-dihydro-1H-quinolin-6-yl)benzimidazole-5-carboxamide], for which the Kd amounted to 14 nM.

In the case of `CNC(=O)c1ccc2c(c1)nc(-c1cc(OC)ncc1F)n2-c1ccc2c(c1)CCC(=O)N2` [Example 44, 2-(5-Fluoro-2-methoxy-4-pyridyl)-N-methyl-1-(2-oxo-3,4-dihydro-1H-quinolin-6-yl)benzimidazole-5-carboxamide], the Kd amounted to 10 nM.

For the compound `CNC(=O)c1ccc2c(c1)nc(Cc1ccc(C(F)(F)F)cc1OC)n2-c1ccc2c(c1)CCC(=O)N2` [Example 47, 2-[[2-Methoxy-4-(trifluoromethyl)phenyl]methyl]-N-methyl-1-(2-oxo-3,4-dihydro-1H-quinolin-6-yl)benzimidazole-5-carboxamide], the Kd was determined as 17 nM.

Consider `O=C1CCc2ccc(-n3ccnc3)cc2N1` [Example 53, 7-(1H-Imidazol-1-yl)-3,4-dihydroquinolin-2(1H)-one], for which the Kd amounted to 16 nM.

Regarding `O=C1CCc2cc(C(=O)N3CCc4cccnc43)ccc2N1` [Example 55, 6-(2,3-Dihydropyrrolo[2,3-b]pyridine-1-carbonyl)-3,4-dihydro-1H-quinolin-2-one], the Kd is 23 nM.

Regarding `CC(=O)N1CCC(NC(=O)c2ccc3c(c2)CCC(=O)N3)CC1` [Example 57, N-(1-Acetyl-4-piperidyl)-2-oxo-3,4-dihydro-1H-quinoline-6-carboxamide], the Kd was determined as 41 nM.

In the case of `O=C1CCc2cc(C(=O)N3CCc4ccccc43)cnc2N1` [Example 58, 6-(Indoline-1-carbonyl)-3,4-dihydro-1H-1,8-naphthyridin-2-one], the Kd was determined as 62 nM.

Take `O=C1CCc2cc(C(=O)N3CCc4cccnc43)cnc2N1` [Example 59, 6-(2,3-Dihydropyrrolo[2,3-b]pyridine-1-carbonyl)-3,4-dihydro-1H-1,8-naphthyridin-2-one]: the Kd was determined as 3 nM.

As for `O=C1CCc2cc(C(=O)N3CCCc4ccccc43)cnc2N1` [Example 60, 6-(3,4-Dihydro-2H-quinoline-1-carbonyl)-3,4-dihydro-1H-1,8-naphthyridin-2-one], the Kd is 1 nM.

As for `CC(C)c1nc2ccccc2n1-c1ccc2c(c1)CNC(=O)N2` [Example 61, 6-(2-Isopropyl-1H-benzo[d]imidazol-1-yl)-3,4-dihydroquinazolin-2(1H)-one], the Kd is 171 nM.

Take `CNC(=O)c1ccc2c(c1)nc(C(C)C)n2-c1ccc2c(c1)CNC(=O)N2` [Example 62, 2-Isopropyl-N-methyl-1-(2-oxo-1,2,3,4-tetrahydroquinazolin-6-yl)-1H-benzo[d]imidazole-5-carboxamide]: the Kd is 120 nM.

On to `Cc1sc2c(c1C)C(c1ccc(Cl)cc1)=N[C@@H](CC(=O)NCCCCCCCCCCNC(=O)c1ccc3c(c1)nc(-c1cc(-c4cncn4C)nc4ccccc14)n3-c1ccc3c(c1)CCC(=O)N3)c1nnc(C)n1-2` [Example A, N-(10-(2-((6S)-4-(4-Chlorophenyl)-2,3,9-trimethyl-6H-thieno[3,2-f][1,2,4]triazolo[4,3-a][1,4]diazepin-6-yl)acetamido)decyl)-2-(2-(1-methyl-1H-imidazol-5-yl)quinolin-4-yl)-1-(2-oxo-1,2,3,4-tetrahydroquinolin-6-yl)-1H-benzo[d]imidazole-5-carboxamide], for which the Kd amounted to 338 nM.

Turning to `Cc1sc2c(c1C)C(c1ccc(Cl)cc1)=N[C@@H](CC(=O)NCCCCCNC(=O)c1ccc3c(c1)nc(-c1cc(-c4cncn4C)nc4ccccc14)n3-c1ccc3c(c1)CCC(=O)N3)c1nnc(C)n1-2` [Example B, N-(5-(2-((6S)-4-(4-Chlorophenyl)-2,3,9-trimethyl-6H-thieno[3,2-f][1,2,4]triazolo[4,3-a][1,4]diazepin-6-yl)acetamido)pentyl)-2-(2-(1-methyl-1H-imidazol-5-yl)quinolin-4-yl)-1-(2-oxo-1,2,3,4-tetrahydroquinolin-6-yl)-1H-benzo[d]imidazole-5-carboxamide], the Kd is 258 nM.

Regarding `Cc1sc2c(c1C)C(c1ccc(Cl)cc1)=N[C@@H](CC(=O)NCCOCCOCCNC(=O)c1ccc3c(c1)nc(-c1cc(-c4cncn4C)nc4ccccc14)n3-c1ccc3c(c1)CCC(=O)N3)c1nnc(C)n1-2` [Example C, N-(2-(2-(2-(2-((6S)-4-(4-Chlorophenyl)-2,3,9-trimethyl-6H-thieno[3,2-f][1,2,4]triazolo[4,3-a][1,4]diazepin-6-yl)acetamido)ethoxy)ethoxy)ethyl)-2-(2-(1-methyl-1H-imidazol-5-yl)quinolin-4-yl)-1-(2-oxo-1,2,3,4-tetrahydroquinolin-6-yl)-1H-benzo[d]imidazole-5-carboxamide], the Kd stood at 524 nM.
